From PubChem BioAssay (NCI) come the findings set out here.

Structures are written as SMILES. “And” between values parts separate entries of the source, which are not always exact repeats. Equal values may be shown once.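 Following 48 hours of exposure in 96-well plates, responses at five concentrations were used to interpolate endpoints linearly. GI50: concentration for 50% inhibition of growth. TGI marks complete inhibition of growth.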

The test system of one test is EKVX NSCLC. The test is described as follows: NCI-60 cell line screen, 48 h.
Molecule `COc1cc(OC(=O)c2ccccc2)cc2c1C(=O)C=CC2=O` displayed a TGI of 30.2 µM.
With `CC/C=C1/C(=O)C=C[C@@H]1C/C=C\CCCC(=O)OC`, the GI50 is 4.8 µM and the TGI worked out at 16.8 µM.
The corresponding values for `CCN(CC)CCCCNc1c2ccccc2[n+](C)c2c1[nH]c1ccccc12` are 0.298 µM and 3.16 µM.
For `COc1ccc(C(=O)c2cc(OC)c(OC)c(OC)c2)cc1OC(=O)CCl`, in that order: 0.832 µM and above 100 µM.
For `COc1ccc(/C(COc2ccc3c(=O)cc(-c4ccccc4)oc3c2)=N\O)cc1`, the GI50 was 2.05 µM and the TGI is above 18 µM.
Consider `CC(C)(C)OC(=O)N1CCN(CCn2cc(C(F)(F)F)c3c(Cl)ncnc32)CC1`, for which the GI50 is 11.3 µM and the TGI was 25.7 µM.
Take `Cc1ccc(Nc2n[nH]c(=S)s2)cc1C`: the TGI was above 100 µM.
With `CN(C)CCN1C(=O)c2ccccc2N(C)c2ccccc21`, the GI50 is above 100 µM and the TGI is above 100 µM.

A further test has as its system BT-549 breast. As to the kind of experiment: NCI-60 cell line screen, 48 h.
As for `COc1c(C)c2c(c(O)c1C/C=C(\C)CCC(=O)O)C(=O)OC2`, the GI50 is 0.818 µM and the TGI was above 100 µM.
Take `Cc1cc(O)c(C(C)C)cc1S(=O)(=O)O` (tested in a mixture with another compound): the GI50 is 2.26 µM and the TGI was 7.54 µM.
Take `COc1cc(C[C@H]2c3cc(OC)c(OC)cc3CCN2C)c(Oc2cc3c(cc2OC)-c2c(OC)c(OC)cc4c2[C@H](C3)N(C)CC4)cc1OC`: the TGI turned out to be 13.1 µM.
Take `COc1cc(C(=O)O[C@H](C(=O)NCCCCCNC(=O)[C@@H](OC(=O)c2cc(OC)cc3c(C)cccc23)[C@]2(C)CO2)[C@]2(C)CO2)c2cccc(C)c2c1`: the GI50 is 1.13 µM and the TGI is 5.8 µM.
`COc1cc2ccc(/C=C\[N+](=O)[O-])cc2cc1OC`: the TGI came to 5.74 µM.
Still for that read-out and setting: with `COC(=O)C1(C)CCC(c2ccc(C)cc2)=C(CC(=O)O)C1` (centres undefined) the figure was above 100 µM.
Take `CCN(CC)CCCC(C)Nc1ccnc2cc(Oc3ccccc3)ccc12` (centres undefined): the GI50 was 7.77 µM and 14.9 µM; the TGI was 21.3 µM and 30.4 µM.
For the molecule `COc1cc([C@@H]2OC[C@@H]3C(c4cc(OC)c5c(c4)OCO5)OC[C@@H]32)cc(OC)c1OC` (some centres undefined), the TGI was above 100 µM.
`C=C1CCC2C3(C)COC(c4ccc(N(C)C)cc4)OC3CCC2(C)C1C/C=C1/C(=O)OCC1O` (centres undefined): the GI50 was 2.95 µM and the TGI was 11.1 µM.
`COc1cc(OC(=O)c2ccccc2)cc2c1C(=O)C=CC2=O` yielded a TGI of 29.8 µM.
Turning to `CC/C=C1/C(=O)C=C[C@@H]1C/C=C\CCCC(=O)OC`, the GI50 was 2.84 µM and the TGI turned out to be 8.15 µM.
Take `CCN(CC)CCCCNc1c2ccccc2[n+](C)c2c1[nH]c1ccccc12`: the GI50 was 1.67 µM and the TGI came out at 4.15 µM.
As to `COc1ccc(C(=O)c2cc(OC)c(OC)c(OC)c2)cc1OC(=O)CCl`, the GI50 is below 0.0192 µM.
For `COc1ccc(/C(COc2ccc3c(=O)cc(-c4ccccc4)oc3c2)=N\O)cc1`, the GI50 is 12.9 µM and the TGI worked out at 25.8 µM.
In the case of `CC(C)(C)OC(=O)N1CCN(CCn2cc(C(F)(F)F)c3c(Cl)ncnc32)CC1`, the GI50 is 1.55 µM and the TGI is 2.92 µM.
In turn, `Cc1ccc(Nc2n[nH]c(=S)s2)cc1C` yielded a TGI above 100 µM.
Take `CN(C)CCN1C(=O)c2ccccc2N(C)c2ccccc21`: the GI50 is above 100 µM and the TGI was above 100 µM.

The test system of the next test is SK-MEL-2 melanoma. As to the kind of experiment: NCI-60 cell line screen, 48 h.
As to `COc1c(C)c2c(c(O)c1C/C=C(\C)CCC(=O)O)C(=O)OC2`, the GI50 was 2 µM and the TGI was above 100 µM.
Take `Cc1cc(O)c(C(C)C)cc1S(=O)(=O)O` (tested in a mixture with another compound): the GI50 was 0.502 µM and the TGI was found to be 2.46 µM.
Take `COc1cc(C[C@H]2c3cc(OC)c(OC)cc3CCN2C)c(Oc2cc3c(cc2OC)-c2c(OC)c(OC)cc4c2[C@H](C3)N(C)CC4)cc1OC`: the GI50 is 14.9 µM; the TGI is 18.5 µM and 28.8 µM.
With `COc1cc(C(=O)O[C@H](C(=O)NCCCCCNC(=O)[C@@H](OC(=O)c2cc(OC)cc3c(C)cccc23)[C@]2(C)CO2)[C@]2(C)CO2)c2cccc(C)c2c1`, the GI50 is 0.2 µM.
Consider `COc1cc2ccc(/C=C\[N+](=O)[O-])cc2cc1OC`, for which the TGI is 9.43 µM.
Take `COC(=O)C1(C)CCC(c2ccc(C)cc2)=C(CC(=O)O)C1` (centres undefined): the TGI was above 100 µM.
Consider `CCN(CC)CCCC(C)Nc1ccnc2cc(Oc3ccccc3)ccc12` (centres undefined), for which the GI50 was 3.05 µM and 2.36 µM; the TGI was 8.96 µM and 5.68 µM.
On to `COc1cc([C@@H]2OC[C@@H]3C(c4cc(OC)c5c(c4)OCO5)OC[C@@H]32)cc(OC)c1OC` (some centres undefined), for which the TGI was above 100 µM.
For `C=C1CCC2C3(C)COC(c4ccc(N(C)C)cc4)OC3CCC2(C)C1C/C=C1/C(=O)OCC1O` (centres undefined), the GI50 was 5.15 µM and the TGI worked out at 13.7 µM.
In turn, `COc1cc(OC(=O)c2ccccc2)cc2c1C(=O)C=CC2=O` returned a TGI of 40.4 µM.
For the molecule `CC/C=C1/C(=O)C=C[C@@H]1C/C=C\CCCC(=O)OC`, the GI50 is 2.24 µM and the TGI is 6.94 µM.
For `CCN(CC)CCCCNc1c2ccccc2[n+](C)c2c1[nH]c1ccccc12`, in that order: 0.31 µM and 0.956 µM.
For `COc1ccc(C(=O)c2cc(OC)c(OC)c(OC)c2)cc1OC(=O)CCl`, in that order: 0.436 µM and above 100 µM.
For the molecule `COc1ccc(/C(COc2ccc3c(=O)cc(-c4ccccc4)oc3c2)=N\O)cc1`, the GI50 was 13.3 µM and the TGI was above 39.1 µM.
Consider `CC(C)(C)OC(=O)N1CCN(CCn2cc(C(F)(F)F)c3c(Cl)ncnc32)CC1`, for which the GI50 is 1.93 µM and the TGI was 3.9 µM.
Take `Cc1ccc(Nc2n[nH]c(=S)s2)cc1C`: the TGI was above 100 µM.
`CN(C)CCN1C(=O)c2ccccc2N(C)c2ccccc21`: the GI50 was above 100 µM and the TGI is above 100 µM.
